According to ChEMBL document CHEMBL1158100, “Sesquiterpenes from Thapsia nitida var. meridionalis and Thapsia nitida var. nitida” (J Nat Prod, 2006):
The source made the active and inactive calls. The rule behind the calls is not given here.

Experiments:
[1] = Inhibition of sarcoplasmic/endoplasmic reticulum calcium ATPase at upto 10 uM
[2] = Inhibition of sarcoplasmic/endoplasmic reticulum calcium ATPase at upto 100 uM

Activity [1] | Activity [2] | Compound
inactive | inactive | C=C1C(=O)O[C@@H]2[C@H]1CC[C@]1(C)[C@@H]3O[C@@H]3[C@H](OC(=O)C=C(C)C)C(=C)[C@@H]21
 | inactive | C=C1CC[C@@H]2[C@@H](OC(=O)[C@@]2(C)OC(=O)/C(C)=C/C)[C@H]2[C@@H]1C[C@@H](OC(C)=O)[C@@]2(C)O
 | inactive | C=C1CC[C@@H]2[C@@H](OC(=O)[C@@]2(C)OC(=O)/C(C)=C\C)[C@@H]2C(C)=CC[C@H]12
 | inactive | C=C1C(=O)O[C@@H]2[C@H]1CC[C@]1(C)[C@@H]3O[C@@H]3[C@H](OC(=O)CC(C)C)C(=C)[C@@H]21
 | inactive | C/C=C(/C)C(=O)O[C@]1(C)C(=O)O[C@H]2[C@@H]3C(C)=CC[C@@H]3[C@@](C)(O)CC[C@H]21
 | inactive | C=C1CC[C@@H]2[C@@H](OC(=O)[C@@]2(C)OC(=O)/C(C)=C\C)[C@H]2[C@@H]1C[C@@H](OC(C)=O)[C@@]2(C)O
